Series [1] deals with Leishmania donovani. The series can be described thus: Antileishmanial activity against Leishmania donovani 9515 amastigote infected in human THP-1 cells assessed as static activity by measuring inhibition of parasite growth incubated for 72 hrs by resazurin dye based assay. The format is functional, organism-based. Conditions: Leishmania donovani, 9515, THP-1, 72 h.
Series [2] concerns Leishmania major. The series can be described thus: Antileishmanial activity against Leishmania major IR-173 promastigotes assessed as inhibition of parasite growth incubated for 48 hrs by resazurin dye based assay. Conditions: IR-173, 48 h. The format is functional, organism-based.
The subject of series [3] is Leishmania major. The series can be described thus: Antileishmanial activity against Leishmania major IR-173 amastigote infected in human THP-1 cells assessed as static activity by measuring inhibition of parasite growth incubated for 72 hrs by resazurin dye based assay. Conditions: IR-173, THP-1, 72 h. Type of series: functional, organism-based.
Series [4] in a line: Selectivity index, ratio of IC50 for antileishmanial activity against Leishmania major IR-173 promastigotes to IC50 for antileishmanial activity against Leishmania major IR-173 amastigote infected in human THP-1 cells assessed as static activity. The format is functional.
For series [5], the system named is Leishmania major. In words: Leishmanicidal activity against Leishmania major IR-173 amastigote infected in human THP-1 cells incubated for 72 hrs by resazurin dye based analysis. The format is functional, organism-based. Conditions: IR-173, THP-1, 72 h.
A short description of series [6]: Selectivity index, ratio of IC50 for cytotoxicity against African green monkey Vero cells to IC50 for leishmanicidal activity against Leishmania major […] amastigote infected in human THP-1 cells. The format is toxicity, cell-based. To be noted: read-out: Ratio IC50.
Series [7] in a line: Selectivity index, ratio of IC50 for antileishmanial activity against Leishmania major IR-173 promastigotes to IC50 for leishmanicidal activity against Leishmania major IR-173 amastigote infected in human THP-1 cells. The format is functional.
Series [8] has as its system Leishmania donovani. In words: Antileishmanial activity against Leishmania donovani 9515 promastigotes assessed as inhibition of parasite growth incubated for 48 hrs by resazurin dye based assay. The format is functional, organism-based. Conditions: Leishmania donovani, 9515, 48 h.
Series [9] concerns Leishmania donovani. In words: Leishmanicidal activity against Leishmania donovani 9515 amastigote infected in human THP-1 cells incubated for 72 hrs by resazurin dye based analysis. The format is functional, organism-based. Conditions: Leishmania donovani, 9515, THP-1, 72 h.
Series [10] in a line: in vitro. To be noted: African green monkey.
Series [11] can be described thus: in vitro. Conditions: monkey, Vero cells.
Description: Selectivity index, ratio of IC50 for cytotoxicity against African green monkey Vero cells to IC50 for antileishmanial activity against Leishmania major IR-173 promastigote
Series [12] in a line: in vitro. Conditions: monkey, Vero cells. The source holds these as a separate data set.
Description: Selectivity index, ratio of IC50 for cytotoxicity against African green monkey Vero cells to IC50 for antileishmanial activity against Leishmania major IR-173 amastigote infected in human THP-1 cells assessed as static activity
Series [13] can be described thus: in vitro. Conditions: monkey.
Description: Selectivity index, ratio of IC50 for cytotoxicity against African green monkey Vero cells to IC50 for leishmanicidal activity against Leishmania donovani 9515 amastigote infected in human THP-1 cells
A short description of series [14]: Cytotoxicity against HEK293 cells assessed as inhibition of cell growth incubated for 48 hrs by resazurin dye based assay. To be noted: human. The format is toxicity.
Series [15] in a line: Selectivity index, ratio of IC50 for cytotoxicity against HEK293 cells to IC50 for antileishmanial activity against Leishmania major IR-173 promastigotes. Type of series: toxicity, cell-based. Conditions: human, read-out: Ratio IC50.
Series [16] in a line: in vitro. Conditions: human.
Series [17] is described as follows: Selectivity index, ratio of IC50 for cytotoxicity against African green monkey Vero cells to IC50 for antileishmanial activity against Leishmania donovani 9515 amastigote infected in human THP-1 cells assessed as static activity. Type of series: toxicity, cell-based. Conditions: read-out: Ratio IC50.
The nature of series [18]: Selectivity index, ratio of IC50 for cytotoxicity against HEK293 cells to IC50 for antileishmanial activity against Leishmania donovani 9515 promastigotes. Type of series: toxicity, cell-based. To be noted: human, read-out: Ratio IC50.
A short description of series [19]: Selectivity index, ratio of IC50 for antileishmanial activity against Leishmania donovani 9515 promastigotes to IC50 for antileishmanial activity against Leishmania donovani 9515 amastigote infected in human THP-1 cells assessed as static activity. Type of series: functional.
Series [20] can be described thus: Selectivity index, ratio of IC50 for antileishmanial activity against Leishmania donovani 9515 promastigotes to IC50 for leishmanicidal activity against Leishmania donovani 9515 amastigote infected in human THP-1 cells. Type of series: functional.
The nature of series [21]: in vitro. Conditions: monkey, Vero cells. The source holds these as a separate data set.
Description: Selectivity index, ratio of IC50 for cytotoxicity against African green monkey Vero cells to IC50 for antileishmanial activity against Leishmania donovani 9515 promastigotes

Structures are written as SMILES.

Turning to `O=Cc1ccc([N+](=O)[O-])o1`, the IC50 is 8.56 µM in the series with Leishmania donovani [1]; 7.28 µM in the series with Leishmania major [2]; 8.35 µM in the series on Leishmania major [3]; 5.6 µM in the series on Leishmania major [5]; over 10 µM in the series with Leishmania donovani [8]; 2.68 µM in the series with Leishmania donovani [9]. Moreover, the figures for the “Ratio IC50” value in series [4] and in [7] were 0.87 and 1.3, respectively. Moreover, the selectivity ratio in [6] worked out at 4; in the series “in vitro [11]”, 3; in “in vitro [12]” it was 3; in “in vitro [13]” (Vero cells), 9. This molecule also showed an IC50 at 48 h in the series “in vitro [10]” (Vero cells) of 23.2 µM.

Regarding `CCCCCc1cn(CCCCCN2C(=O)CN(/N=C/c3ccc([N+](=O)[O-])o3)C2=O)nn1`, the results for the IC50 at 48 h (in [14]; in the series “in vitro [10]” (Vero cells); in the series “in vitro [16]” (THP-1 cells)) were 12 µM, 72.8 µM and 70 µM, respectively. Moreover, the IC50 in the series with Leishmania donovani [1] was over 10 µM; with Leishmania major [2], 1.07 µM; in the series with Leishmania major [3] it was over 10 µM; in the series with Leishmania major [5], 6.56 µM; in the series on Leishmania donovani [8] it was over 10 µM; in the series on Leishmania donovani [9], over 10 µM. Further, the selectivity ratio in series [15] and in [6] was 11 each time. Also, the “Ratio IC50” value in series [7] is listed as 0.2.

`COc1ccc(-c2cn(CCCN3C(=O)CN(/N=C/c4ccc([N+](=O)[O-])o4)C3=O)nn2)cc1`: the IC50 at 48 h is 10.8 µM in series [14], over 100 µM in the series “in vitro [10]” (Vero cells) and over 100 µM in “in vitro [16]” (THP-1 cells). In addition, the IC50 was over 10 µM in the series with Leishmania donovani [1]; 0.8 µM with Leishmania major [2]; over 10 µM in the series with Leishmania major [3]; 9.75 µM in the series on Leishmania major [5]; over 10 µM with Leishmania donovani [8]; over 10 µM with Leishmania donovani [9]. Also, the selectivity ratio is 13 in series [15] and over 10 in series [6]. Moreover, the “Ratio IC50” value in series [7] is given as 0.1.

Consider `CCCCCCc1cn(CCCN2C(=O)CN(/N=C/c3ccc([N+](=O)[O-])o3)C2=O)nn1`, for which the values for the IC50 at 48 h (in [14]; in “in vitro [10]” (Vero cells); in the series “in vitro [16]” (THP-1 cells)) were 16.5 µM, over 100 µM and 38.5 µM, respectively. The IC50 in the series with Leishmania donovani [1] is over 10 µM; in the series with Leishmania major [2], 0.48 µM; in the series on Leishmania major [3], 0.84 µM; in the series with Leishmania major [5] it was over 10 µM; in the series with Leishmania donovani [8] it was over 10 µM; with Leishmania donovani [9], over 10 µM. Besides, the selectivity ratio in [15] came out at 34; in the series “in vitro [12]”, 119. For the same molecule, the “Ratio IC50” value in [4] turned out to be 0.7.

For the molecule `CCCCCc1cn(CCCN2C(=O)CN(/N=C/c3ccc([N+](=O)[O-])o3)C2=O)nn1`, the IC50 at 48 h in series [14] is 35.6 µM; in “in vitro [10]” (Vero cells), over 100 µM; in the series “in vitro [16]” (THP-1 cells), 50.6 µM. The IC50 was over 10 µM in the series on Leishmania donovani [1]; 0.55 µM in the series with Leishmania major [2]; 0.61 µM with Leishmania major [3]; over 10 µM with Leishmania major [5]; over 10 µM in the series with Leishmania donovani [8]; over 10 µM in the series with Leishmania donovani [9]. The selectivity ratio in [15] stood at 74; in “in vitro [12]”, 164. Moreover, the “Ratio IC50” value in [4] was 0.8.

On to `CCCCc1cn(CCCN2C(=O)CN(/N=C/c3ccc([N+](=O)[O-])o3)C2=O)nn1`, for which the IC50 at 48 h in series [14] is 43.9 µM; in the series “in vitro [10]” (Vero cells), over 100 µM; in the series “in vitro [16]” (THP-1 cells), 52.5 µM. The selectivity ratio was 99 in series [17], 98 in series [15] and 30 in “in vitro [12]”. The IC50 is 1.01 µM with Leishmania donovani [1]; 0.45 µM with Leishmania major [2]; 3.34 µM in the series on Leishmania major [3]; over 10 µM with Leishmania major [5]; over 10 µM in the series on Leishmania donovani [8]; over 10 µM in the series with Leishmania donovani [9]. Moreover, the “Ratio IC50” value in series [4] is given as 0.2.

With `COc1ccc(-c2cn(CCCCCCN3C(=O)CN(/N=C/c4ccc([N+](=O)[O-])o4)C3=O)nn2)cc1`, the IC50 at 48 h in series [14] is 5.39 µM. Also, the IC50 is over 10 µM in the series with Leishmania donovani [1]; 0.59 µM in the series on Leishmania major [2]; over 10 µM in the series on Leishmania major [3]; over 10 µM with Leishmania major [5]; 0.23 µM in the series with Leishmania donovani [8]; over 10 µM with Leishmania donovani [9]. Besides, the selectivity ratio turned out to be 9 in series [15] and 23 in [18].

For `O=C1CN(/N=C/c2ccc([N+](=O)[O-])o2)C(=O)N1CCCn1cc(CSc2ccccc2)nn1`, the IC50 at 48 h in series [14] was determined as 37.4 µM; in “in vitro [10]” (Vero cells), 3.86 µM; in “in vitro [16]” (THP-1 cells), 6.65 µM. In addition, the IC50 with Leishmania donovani [1] was over 10 µM; in the series on Leishmania major [2], 0.67 µM; in the series on Leishmania major [3], over 10 µM; in the series with Leishmania major [5], 3.98 µM; with Leishmania donovani [8] it was over 10 µM; with Leishmania donovani [9], 9.9 µM. In addition, the selectivity ratio was 56 in series [15] and 1 in [6]. Moreover, the “Ratio IC50” value in series [7] turned out to be 0.2.

In the case of `CCCCc1cn(CCCCCN2C(=O)CN(/N=C/c3ccc([N+](=O)[O-])o3)C2=O)nn1`, the values for the half-maximal inhibitory concentration (IC50) at 48 h (in series [14]; in “in vitro [10]” (Vero cells); in “in vitro [16]” (THP-1 cells)) were over 100 µM, 31.6 µM and over 100 µM, respectively. Further, the IC50 is over 10 µM in the series on Leishmania donovani [1]; 0.44 µM in the series on Leishmania major [2]; over 10 µM with Leishmania major [3]; 5.69 µM in the series on Leishmania major [5]; over 10 µM with Leishmania donovani [8]; 1.68 µM in the series with Leishmania donovani [9]. For the same molecule, the selectivity ratio in [15] is over 227; in [6] it was 6; in “in vitro [13]” (Vero cells), 19. Further, the “Ratio IC50” value in series [7] came to 0.1.

On to `O=C1OCCN1/N=C/c1ccc([N+](=O)[O-])o1` [FURAZOLIDONE], for which the “Ratio IC50” value was 0.1 in series [19], 0.1 in series [4] and 0.2 in series [20]. For the same molecule, the IC50 with Leishmania donovani [1] is 4.94 µM; in the series on Leishmania major [3] it was 5.75 µM; in the series with Leishmania major [5], over 10 µM; in the series with Leishmania donovani [9], 1.68 µM. The IC50 at 48 h in the series “in vitro [10]” (vero) and in “in vitro [16]” (THP-1 cells) was over 100 µM each time. In addition, the selectivity ratio was determined as 270 in the series “in vitro [11]”, 17 in the series “in vitro [12]”, 357 in “in vitro [21]” and 60 in “in vitro [13]” (Vero cells).

`O=C1CN(/N=C/c2ccc([N+](=O)[O-])o2)C(=O)N1` [NITROFURANTOIN]: the IC50 was over 10 µM in the series on Leishmania donovani [1]; over 10 µM in the series on Leishmania major [2]; over 10 µM in the series on Leishmania major [3]; over 10 µM with Leishmania major [5]; over 10 µM in the series on Leishmania donovani [8]; 3.57 µM in the series with Leishmania donovani [9]. The IC50 at 48 h in “in vitro [10]” (vero) and in the series “in vitro [16]” (thp-1) was over 100 µM in each case. The selectivity ratio in “in vitro [13]” was determined as 28.

As to `NC(=O)N/N=C/c1ccc([N+](=O)[O-])o1` [NITROFURAZONE], the “Ratio IC50” value in series [19] is on record as 0.2; in series [4], 0.12; in series [7], 0.1; in series [20], 0.3. The IC50 was found to be 4.11 µM in the series on Leishmania donovani [1], 2.8 µM with Leishmania major [3], 5.6 µM with Leishmania major [5] and 2.7 µM in the series on Leishmania donovani [9]. In addition, the concentration for half-maximal inhibition (IC50) at 48 h in “in vitro [10]” (Vero cells) and in the series “in vitro [16]” (THP-1 cells) was over 100 µM in each case. The selectivity ratio in the series “in vitro [11]” came out at 54; in the series “in vitro [12]”, 36; in “in vitro [21]”, 54; in “in vitro [13]” (Vero cells), 37.

These data come from ChEMBL document CHEMBL5352474, “Synthesis and in vitro antileishmanial activity of alkylene-linked nitrofurantoin-triazole hybrids” (Eur J Med Chem, 2023).
